Like-named read-outs stand apart in the source and are kept apart here.
Legend:
[1] = molecular target: T1, N-terminally GST-tagged mTOR (Homo sapiens, UniProt P42345); experiment: In vitro mTOR binding assay (LanthaScreen TR-FRET)
T1 construct: truncated version: amino acids 1360-2549; purchased Life Technologies PR8683B

pPKB S473 in A2058 cells = experiment: In-cell Western blot, pPKB S473; type: cell-based; conditions: Homo sapiens, 1 hour treatment
[2] = system: pS6 S235/S236 in A2058 cells; experiment: In-cell Western blot, pS6 S235/S236; type: cell-based; conditions: Homo sapiens, 1 hour treatment
[3] = LanthaScreen kinase binding, Tracer 314, read-out: mTOR IC50 (binding)

T1 sequence (P42345 1360-2549): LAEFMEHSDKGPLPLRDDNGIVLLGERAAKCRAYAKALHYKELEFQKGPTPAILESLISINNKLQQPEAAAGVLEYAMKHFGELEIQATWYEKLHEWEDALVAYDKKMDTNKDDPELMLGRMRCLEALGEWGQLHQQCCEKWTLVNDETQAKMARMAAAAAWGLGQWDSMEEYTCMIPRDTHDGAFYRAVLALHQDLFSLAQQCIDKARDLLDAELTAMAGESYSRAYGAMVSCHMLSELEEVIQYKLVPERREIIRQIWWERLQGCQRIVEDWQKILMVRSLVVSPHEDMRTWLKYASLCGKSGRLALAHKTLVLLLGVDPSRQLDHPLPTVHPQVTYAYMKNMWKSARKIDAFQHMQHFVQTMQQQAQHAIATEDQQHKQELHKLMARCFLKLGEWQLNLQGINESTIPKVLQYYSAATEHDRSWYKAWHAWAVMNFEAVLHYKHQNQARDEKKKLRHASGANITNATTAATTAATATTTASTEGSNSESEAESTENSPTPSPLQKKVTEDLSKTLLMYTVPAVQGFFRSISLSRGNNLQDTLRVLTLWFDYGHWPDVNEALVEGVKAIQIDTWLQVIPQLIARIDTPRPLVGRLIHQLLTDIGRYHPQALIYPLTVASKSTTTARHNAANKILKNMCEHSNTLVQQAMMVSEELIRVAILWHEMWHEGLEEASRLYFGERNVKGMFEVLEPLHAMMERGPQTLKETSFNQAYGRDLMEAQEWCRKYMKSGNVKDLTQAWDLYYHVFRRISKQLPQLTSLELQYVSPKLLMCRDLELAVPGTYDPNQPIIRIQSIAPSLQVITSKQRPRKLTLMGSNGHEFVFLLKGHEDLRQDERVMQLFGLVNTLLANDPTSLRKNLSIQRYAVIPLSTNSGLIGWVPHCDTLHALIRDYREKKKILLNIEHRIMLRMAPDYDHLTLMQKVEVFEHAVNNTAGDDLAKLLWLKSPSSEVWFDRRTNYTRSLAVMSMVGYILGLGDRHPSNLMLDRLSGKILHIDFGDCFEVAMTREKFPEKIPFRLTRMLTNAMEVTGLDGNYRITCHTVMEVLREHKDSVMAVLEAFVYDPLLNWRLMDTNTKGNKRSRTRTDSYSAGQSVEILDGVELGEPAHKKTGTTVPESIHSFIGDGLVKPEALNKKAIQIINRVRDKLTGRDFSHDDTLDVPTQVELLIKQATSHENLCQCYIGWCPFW

IC50 (pPKB S473 in A2058 cells; A2058, 1 h) | IC50 ([2]; A2058, 1 h) | SMILES | also measured
 |  | Nc1ncc(-c2nc(N3CCOCC3)nc(N3CCOCC3)n2)c(C(F)F)n1 [Compound 2] | IC50 [1, 3]: 59 nM
 |  | C[C@H]1COCCN1c1nc(-c2cnc(N)nc2C(F)F)nc(N2CCOC[C@@H]2C)n1 [Compound 7] | IC50 [1, 3]: 71 nM
 |  | C[C@H]1COCCN1c1nc(-c2cnc(N)cc2C(F)(F)F)nc(N2CCOCC2)n1 [Compound 8 *, 5-[4-[(3S)-3-methylmorpholin-4-yl]-6-morpholino-1,3,5-triazin-2-yl]-4-(trifluoromethyl)pyridin-2-amine] | IC50 (pPKB S473 in A2058 cells): 196 nM; IC50 [2]: 90 nM
 |  | C[C@H]1COCCN1c1nc(-c2cnc(N)cc2C(F)F)nc(N2CCOCC2)n1 [Compound 8, (S)-4-(difluoromethyl)-5-(4-(3-methylmorpholino)-6-morpholino-1,3,5-triazin-2-yl)pyridin-2-amine] | IC50 (pPKB S473 in A2058 cells): 74 nM; IC50 [2]: 68 nM; IC50 [1, 3]: 10 nM
 |  | C[C@H]1COCCN1c1nc(-c2cnc(N)nc2C(F)F)nc(N2CCOCC2)n1 [Compound 9] | IC50 (pPKB S473 in A2058 cells): 35 nM; IC50 [2]: 72 nM; IC50 [1, 3]: 24 nM
350 nM | 883 nM | C[C@H]1COCCN1c1nc(-c2cnc(N)cc2C(F)F)nc(N2CCNCC2)n1 [Compound 14, (S)-4-(difluoromethyl)-5-(4-(3-methylmorpholino)-6-(piperazin-1-yl)-1,3,5-triazin-2-yl)pyridin-2-amine] | 
49 nM | 286 nM | C[C@H]1COCCN1c1nc(-c2cnc(N)nc2C(F)F)nc(N2CCNCC2)n1 [Compound 15, (S)-4-(difluoromethyl)-5-(4-(3-methylmorpholino)-6-(piperazin-1-yl)-1,3,5-triazin-2-yl)pyrimidin-2-amine] | 
 |  | Nc1ncc(-c2cc(N3CCOCC3)nc(N3CCOCC3)n2)c(C(F)F)n1 [Compound 17, 4′-(difluoromethyl)-2,6-dimorpholino-[4,5′-bipyrimidin]-2′-amine] | IC50 [2]: 149 nM; IC50 [1, 3]: 155 nM
 |  | Nc1ncc(-c2nc(N3CCOCC3)cc(N3CCOCC3)n2)c(C(F)F)n1 [Compound 19, 4′-(difluoromethyl)-4,6-dimorpholino-[2,5′-bipyrimidin]-2′-amine] | IC50 [1, 3]: 158 nM
 |  | C[C@H]1COCCN1c1cc(-c2cnc(N)nc2C(F)F)nc(N2CCOCC2)n1 [Compound 28, (S)-4′-(difluoromethyl)-6-(3-methylmorpholino)-2-morpholino-[4,5′-bipyrimidin]-2′-amine] | IC50 [1, 3]: 23 nM
 |  | Nc1cc(C(F)F)c(-c2nc(N3C4COCC3COC4)nc(N3C4COCC3COC4)n2)cn1 [Compound 37, 5-[4,6-bis(3,7-dioxa-9-azabicyclo[3.3.1]nonan-9-yl)-1,3,5-triazin-2-yl]-4-(difluoromethyl)pyridin-2-amine] | IC50 [1]: 49 nM
1050 nM | 332 nM | C[C@@H]1COCCN1c1nc(-c2cnc(N)cc2C(F)F)nc(N2C[C@H]3C[C@@H]2CO3)n1 [Compound 52, 4-(difluoromethyl)-5-[4-[(3R)-3-methylmorpholin-4-yl]-6-[(1R,4R)-2-oxa-5-azabicyclo[2.2.1]heptan-5-yl]-1,3,5-triazin-2-yl]pyridin-2-amine] | 
1320 nM | 612 nM | C[C@@H]1COCCN1c1nc(-c2cnc(N)cc2C(F)F)nc(N2C[C@@H]3C[C@H]2CO3)n1 [Compound 53, 4-(difluoromethyl)-5-[4-[(3R)-3-methylmorpholin-4-yl]-6-[(1S,4S)-2-oxa-5-azabicyclo[2.2.1]heptan-5-yl]-1,3,5-triazin-2-yl]pyridin-2-amine] | 
354 nM | 209 nM | CC[C@@H]1COCCN1c1nc(-c2cnc(N)cc2C(F)F)nc(N2CCOC[C@H]2CC)n1 [Compound 54, 5-[4,6-bis[(3R)-3-ethylmorpholin-4-yl]-1,3,5-triazin-2-yl]-4-(difluoromethyl)pyridin-2-amine] | 
942 nM | 526 nM | Nc1cc(C(F)F)c(-c2nc(N3CCOCC34CCC4)nc(N3CCOCC34CCC4)n2)cn1 [Compound 55, 5-[4,6-bis(8-oxa-5-azaspiro[3.5]nonan-5-yl)-1,3,5-triazin-2-yl]-4-(difluoromethyl)pyridin-2-amine] | 
> 10000 nM | > 10000 nM | CC(C)[C@@H]1COCCN1c1nc(-c2cnc(N)cc2C(F)F)nc(N2CCOC[C@H]2C(C)C)n1 [Compound 56, 5-[4,6-bis[(3R)-3-isopropylmorpholin-4-yl]-1,3,5-triazin-2-yl]-4-(difluoromethyl)pyridin-2-amine] | 
787 nM | 395 nM | COC[C@@H]1COCCN1c1nc(-c2cnc(N)cc2C(F)F)nc(N2CCOCC2(C)C)n1 [Compound 67, 4-(difluoromethyl)-5-[4-(3,3-dimethylmorpholin-4-yl)-6-[(3R)-3-(methoxymethyl)morpholin-4-yl]-1,3,5-triazin-2-yl]pyridin-2-amine] | 
682 nM | 415 nM | CC1(C)COCCN1c1nc(-c2cnc(N)cc2C(F)F)nc(N2CCOC[C@H]2CO)n1 [Compound 68, [(3R)-4-[4-[6-amino-4-(difluoromethyl)-3-pyridyl]-6-(3,3-dimethylmorpholin-4-yl)-1,3,5-triazin-2-yl]morpholin-3-yl]methanol] | 
914 nM | 906 nM | CC1(C)COCCN1c1nc(-c2cnc(N)cc2C(F)F)nc(N2CCN(C3CC3)CC2)n1 [Compound 70, 5-[4-(4-cyclopropylpiperazin-1-yl)-6-(3,3-dimethylmorpholin-4-yl)-1,3,5-triazin-2-yl]-4-(difluoromethyl)pyridin-2-amine] | 
2340 nM | 3140 nM | COCCN1CCN(c2nc(-c3cnc(N)cc3C(F)F)nc(N3CCOCC3(C)C)n2)CC1 [Compound 71, 4-(difluoromethyl)-5-[4-(3,3-dimethylmorpholin-4-yl)-6-[4-(2-methoxyethyl)piperazin-1-yl]-1,3,5-triazin-2-yl]pyridin-2-amine] | 
476 nM |  | C[C@@H]1COCCN1c1nc(-c2cnc(N)cc2C(F)F)nc(N2CCOC[C@H]2CO)n1 [Compound 77, [(3R)-4-[4-[6-amino-4-(difluoromethyl)-3-pyridyl]-6-[(3R)-3-methylmorpholin-4-yl]-1,3,5-triazin-2-yl]morpholin-3-yl]methanol] | 
249 nM | 241 nM | CC[C@H]1COCCN1c1nc(-c2cnc(N)cc2C(F)F)nc(N2CCOC[C@H]2C)n1 [Compound 85, 4-(difluoromethyl)-5-[4-[(3S)-3-ethylmorpholin-4-yl]-6-[(3R)-3-methylmorpholin-4-yl]-1,3,5-triazin-2-yl]pyridin-2-amine] | 
231 nM | 236 nM | CC[C@@H]1COCCN1c1nc(-c2cnc(N)cc2C(F)F)nc(N2CCOC[C@H]2C)n1 [Compound 86, 4-(difluoromethyl)-5-[4-[(3R)-3-ethylmorpholin-4-yl]-6-[(3R)-3-methylmorpholin-4-yl]-1,3,5-triazin-2-yl]pyridin-2-amine] | 
263 nM | 277 nM | Nc1cc(C(F)(F)F)c(-c2cc(N3CCOCC3)nc(N3CCOCC3)n2)cn1 [reference compound] | 

SMILES | IC50 (pPKB S473 in A2058 cells; A2058, 1 h) | IC50 ([2]; A2058, 1 h) | also measured
Nc1cc(C(F)F)c(-c2nc(N3CCOCC3)nc(N3C4CCC3COC4)n2)cn1 [Compound 4, 5-(4-(3-oxa-8-azabicyclo[3.2.1]octan-8-yl)-6-morpholino-1,3,5-triazin-2-yl)-4-(difluoromethyl)pyridin-2-amine] | 178 nM | 135 nM | 
Nc1ncc(-c2nc(N3CCOCC3)nc(N3C4CCC3COC4)n2)c(C(F)F)n1 [Compound 5, 5-(4-(3-oxa-8-azabicyclo[3.2.1]octan-8-yl)-6-morpholino-1,3,5-triazin-2-yl)-4-(difluoromethyl)pyrimidin-2-amine] | 85 nM | 135 nM | 
C[C@H]1COCCN1c1nc(-c2cnc(N)cc2C(F)F)nc(N2C3CCC2COC3)n1 [Compound 10, 5-(4-(3-oxa-8-azabicyclo[3.2.1]octan-8-yl)-6-((S)-3-methylmorpholino)-1,3,5-triazin-2-yl)-4-(difluoromethyl)pyridin-2-amine] | 138 nM | 93 nM | 
C[C@H]1COCCN1c1nc(-c2cnc(N)nc2C(F)F)nc(N2C3CCC2COC3)n1 [Compound 11, 5-(4-(3-oxa-8-azabicyclo[3.2.1]octan-8-yl)-6-((S)-3-methylmorpholino)-1,3,5-triazin-2-yl)-4-(difluoromethyl)pyrimidin-2-amine] | 61 nM | 96 nM | 
Nc1cc(C(F)F)c(-c2nc(N3C4CCC3COC4)nc(N3C4COCC3COC4)n2)cn1 [Compound 38, 4-(difluoromethyl)-5-[4-(3,7-dioxa-9-azabicyclo[3.3.1]nonan-9-yl)-6-(3-oxa-8-azabicyclo[3.2.1]octan-8-yl)-1,3,5-triazin-2-yl]pyridin-2-amine] | 219 nM | 79 nM | 
C[C@@H]1COCCN1c1nc(-c2cnc(N)cc2C(F)F)nc(N2C3COCC2C3)n1 [Compound 50, 4-(difluoromethyl)-5-[4-[(3R)-3-methylmorpholin-4-yl]-6-(3-oxa-6-azabicyclo[3.1.1]heptan-6-yl)-1,3,5-triazin-2-yl]pyridin-2-amine] | 1560 nM | 407 nM | 
C[C@@H]1COCCN1c1nc(-c2cnc(N)cc2C(F)F)nc(N2CC3CC(C2)O3)n1 [Compound 51, 4-(difluoromethyl)-5-[4-[(3R)-3-methylmorpholin-4-yl]-6-(6-oxa-3-azabicyclo[3.1.1]heptan-3-yl)-1,3,5-triazin-2-yl]pyridin-2-amine] | 875 nM | 352 nM | 
Nc1cc(C(F)F)c(-c2nc(N3CCOCC3)nc(N3C4CCCC3COC4)n2)cn1 [Compound 80, 4-(difluoromethyl)-5-[4-morpholino-6-(3-oxa-9-azabicyclo[3.3.1]nonan-9-yl)-1,3,5-triazin-2-yl]pyridin-2-amine] | 94 nM | 117 nM | 
Nc1cc(C(F)F)c(-c2nc(N3CCOCC3)nc(N3C4COCC3COC4)n2)cn1 [Compound 84, 4-(difluoromethyl)-5-[4-(3,7-dioxa-9-azabicyclo[3.3.1]nonan-9-yl)-6-morpholino-1,3,5-triazin-2-yl]pyridin-2-amine] | 116 nM | 146 nM | 

— patent US10993947B2, “Treatment of skin lesions” (PIQUR THERAPEUTICS AG, priority 2016, dated 2021)
